Experimental data from patent publication US11401271B2, “Fused heterocyclic compound, pyrazole-ring-containing fused heterocyclic compound, agricultural composition containing thereof, and method of using the composition” (SOUTH CHINA AGRICULTURAL UNIVERSITY, priority 2017, dated 2022).
Like-named read-outs stand apart in the source and are kept apart here.

Tests used:
Assay in all cases: whole plant or invertebrate
Assay type in all cases: in vivo
[1] = tested on: Spodoptera exigua; conditions: for mortality at 500 ppm: Spodoptera exigua, read-out: Spodoptera exigua Mortality (%) 500 ppm
Method: (2) Insecticidal Activity on 2nd-Instar Larvae of Spodoptera exigua.
Spodoptera exigua is a lepidoptera pest with a chewing mouthpart and is a common vegetable pest. The 2nd-instar larvae of Spodoptera exigua were used as test objects and tested by using a leaf immersion feeding method.
(§1) Operation process: Samples were weighed accurately, and respectively added with 200 μL, of dimethyl sulfoxide to prepare 10 g/L mother liquor which was diluted into a concentration of 500 ppm with an aqueous solution containing 0.05% of Tween-80 during the test. A hole puncher with a diameter of 1.0 cm was used to make cleaned cabbage leaves into leaf discs. The leaf discs were immersed in a liquid medicine, taken out after 5 seconds, air-dried naturally, and transferred into a clean vessel. About 35 2nd -instar larvae of Spodoptera exigua were put into the vessel and fed at a constant temperature of 28° C. Each concentration was repeated 3 times, and an aqueous solution containing 0.05% of Tween-80 was used as a control group. After being treated for 24 hours, a number of dead Spodoptera exigua was counted, and a mortality (%) was calculated according to a formula that mortality (%)=(number of live larvae in the control group −number of treated live larvae)/number of live larvae in the control group * 100%.

[2] = tested on: Solenopsis invicta; conditions: water test tube poison-feeding; for mortality at 100 ppm: Solenopsis invicta
Method: (4) Insecticidal Activity on Solenopsis invicta.
As a hymenoptera pests and a social insect, Solenopsis invicta is one of the most destructive invasive organisms. Solenopsis invicta were used as test objects and tested by using a water test tube poison-feeding method.
Operation process: Samples were weighed accurately, and respectively added with 200 μL of dimethyl sulfoxide to prepare 10 g/L mother liquor which was diluted into a concentration of 100 ppm with a mixed aqueous solution containing 0.05% of Tween-80 and 5% of honey during the test. […] The raising test tube was placed in a raising box horizontally, and a small amount of ham sausages were added to the raising test tube as food to raise the Solenopsis invicta at a constant temperature of 25° C. After being treated for 24 hours and 72 hours, a number of live Solenopsis invicta and a number of dead Solenopsis invicta were counted, and a mortality (%) was calculated according to a formula that mortality (%)=(number of live Solenopsis invicta in the control group−number of treated live Solenopsis invicta)/number of live Solenopsis invicta in the control group*100%.

[3] = tested on: Aphis craccivora; conditions: for Aphis craccivora Mortality (%): immersion 5 seconds, counted after 24 hours; for mortality at 500 ppm: Aphis craccivora, read-out: Aphis craccivora Mortality (%) 500 ppm
Method: (3) Insecticidal Activity on Aphid Adults.
Aphid is a homoptera pest with a piercing-sucking mouthpart and is a common vegetable pest. Aphis craccivora were taken as test objects and tested by using an impregnation method.
Operation process: Samples were weighed accurately, and respectively added with 200 μL of dimethyl sulfoxide to prepare 10 g/L mother liquor which was diluted into a concentration of 500 ppm with an aqueous solution containing 0.05% of Tween-80 during the test. After the wingless Aphis craccivora adults stably sucked on bean sprouts, the wingless Aphis craccivora adults together with the bean sprouts were immersed into a liquid medicine with a concentration of 500 ppm, taken out after 5 seconds, air-dried naturally, transferred into a clean vessel, and fed at a constant temperature of 23° C. Each concentration was repeated 3 times, and an aqueous solution containing 0.05% of Tween-80 was used as a control group. After being treated for 24 hours, a number of dead Aphis craccivora was counted, and a mortality (%) was calculated according to a formula that mortality (%)=(number of live Aphis craccivora in the control group−number of treated live Aphis craccivora)/number of live Aphis craccivora in the control group*100%.

[4] = tested on: Plutella xylostella; conditions: for mortality at 500 ppm: Plutella xylostella, read-out: Plutella xylostella Mortality (%) 500 ppm
Method: (1) Insecticidal Activity on 2nd-Instar Larvae of Plutella xylostella.
Plutella xylostella (L.) is a lepidoptera pest with a chewing mouthpart and is a common vegetable pest. The 2nd-instar larvae of Plutella xylostella were used as test objects and tested by using a leaf immersion feeding method.
as §1, with “μL” for “μL,”, “2nd-instar” for “2nd -instar”, “Plutella xylostella” for “Spodoptera exigua”, “group−number” for “group −number”, “group*100%.” for “group * 100%.”

[5] = 500 ppm, 2nd-instar larvae, leaf immersion feeding
[6] = 500 ppm, 2nd-instar larvae, leaf immersion feeding, 24 hours
[7] = 500 ppm, wingless adults, impregnation method, 24 hours
[8] = 24 h, read-out: Solenopsis invicta Mortality (%) 100 ppm 24 h, 100 ppm, 24 h
[9] = 72 h, read-out: Solenopsis invicta Mortality (%) 100 ppm 72 h, 100 ppm, 72 h
[10] = 100 ppm, 24 h, read-out: Solenopsis invicta Mortality (%) 100 ppm 24 h
[11] = 100 ppm, 72 h, read-out: Solenopsis invicta Mortality (%) 100 ppm 72 h

## COC(=O)CC1(C(=O)OC)Nc2c(C#N)c(C(F)(F)F)nn2-c2cc(C(F)(F)F)cc(Cl)c21 (stereo not shown) [c-4]
[1]; [5]
  Spodoptera exigua Mortality (%): 100%
[2]; 100 ppm, 24 h
  Solenopsis invicta Mortality (%) 24 h: 29%
[2]; 100 ppm, 72 h
  Solenopsis invicta Mortality (%) 72 h: 93%
[3]; 500 ppm, wingless adults
  Aphis craccivora Mortality (%): 100%
[4]; [5]
  Plutella xylostella Mortality (%): 97%

## CC=CC1Nc2c([S+]([O-])C(F)(F)F)c(C(F)(F)F)nn2-c2ncc(C(F)(F)F)cc21 (stereo not shown) [a-109]
[1]; [6]
  Spodoptera exigua Mortality (%) 500 ppm: 89%
[2]; 100 ppm, 24 h
  Solenopsis invicta Mortality (%) 100 ppm 24 h: 20%
[2]; 100 ppm, 72 h
  Solenopsis invicta Mortality (%) 100 ppm 72 h: 90%
[3]; [7]
  Aphis craccivora Mortality (%) 500 ppm: 100%
[4]; [5]
  Plutella xylostella Mortality (%) 500 ppm: 95%

## N#CCC1(Cl)Nc2c([S+]([O-])C(F)(F)F)c(C#N)nn2-c2cncc(Cl)c21 (stereo not shown) [b-47]
[1]; [5]
  Spodoptera exigua Mortality (%): 85%
[2]; 100 ppm, 24 h
  Solenopsis invicta Mortality (%) 24 h: 18%
[2]; 100 ppm, 72 h
  Solenopsis invicta Mortality (%) 72 h: 90%
[3]; 500 ppm, wingless adults
  Aphis craccivora Mortality (%): 100%
[4]; [5]
  Plutella xylostella Mortality (%): 95%

## C=CC1(CC(F)(F)F)Nc2c(Br)c(C#N)nn2-c2c(Cl)cc(C(F)(F)F)cc21 (stereo not shown) [Compound C6]
[1]; 24 h
  mortality at 500 ppm: 100%
[2]; [8]
  mortality at 100 ppm: 44%
[2]; [9]
  mortality at 100 ppm: 100%
[3]; 24 h
  mortality at 500 ppm: 100%
[4]
  mortality at 500 ppm: 100%

## N#Cc1nn2c(c1[S+]([O-])C(F)(F)F)NC(CC(=O)C(F)(F)F)c1c(Cl)cncc1-2 (stereo not shown) [b-70]
[1]; [5]
  Spodoptera exigua Mortality (%): 95%
[2]; 100 ppm, 24 h
  Solenopsis invicta Mortality (%) 24 h: 44%
[2]; 100 ppm, 72 h
  Solenopsis invicta Mortality (%) 72 h: 100%
[3]; 500 ppm, wingless adults
  Aphis craccivora Mortality (%): 100%
[4]; [5]
  Plutella xylostella Mortality (%): 100%

## CSc1nn2c(c1C#N)N(C(=O)Oc1ccccc1)C(F)(C(F)(F)F)c1ccccc1-2 (stereo not shown) [Compound A31]
[1]; [6]
  mortality at 500 ppm: 100%
[2]; [10]
  mortality at 100 ppm: 20%
[2]; [11]
  mortality at 100 ppm: 100%
[3]; [7]
  mortality at 500 ppm: 100%
[4]; [5]
  mortality at 500 ppm: 100%

## C=CC1Nc2c([S+]([O-])C(F)(F)F)c(C#N)nn2-c2c(Cl)cc(C(F)(F)F)cc21 (stereo not shown) [Compound C16]
[1]; 24 h
  mortality at 500 ppm: 95%
[2]; [8]
  mortality at 100 ppm: 23%
[2]; [9]
  mortality at 100 ppm: 89%
[3]; 24 h
  mortality at 500 ppm: 99%
[4]
  mortality at 500 ppm: 100%

## C=CC1(CCl)Nc2c([S+](C)[O-])c(C(C)=O)nn2-c2c(Cl)cc(C(F)(F)F)cc21 (stereo not shown) [Compound C19]
[1]; 24 h
  mortality at 500 ppm: 90%
[2]; [8]
  mortality at 100 ppm: 18%
[2]; [9]
  mortality at 100 ppm: 70%
[3]; 24 h
  mortality at 500 ppm: 100%
[4]
  mortality at 500 ppm: 90%

## CC[S+]([O-])c1c(C(F)(F)F)nn2c1NC(C(F)(F)F)(C(F)(F)F)c1ccc(N)cc1-2 (stereo not shown) [Compound A14]
[1]; 24 h
  mortality at 500 ppm: 90%
[2]; [8]
  mortality at 100 ppm: 26%
[2]; [9]
  mortality at 100 ppm: 93%
[3]; 24 h
  mortality at 500 ppm: 100%
[4]
  mortality at 500 ppm: 100%

## COC(=O)CC1(C(=O)C(F)(F)F)Nc2c([S+]([O-])C(F)(F)F)c(C#N)nn2-c2cncc(Cl)c21 (stereo not shown) [b-28]
[1]; [5]
  Spodoptera exigua Mortality (%): 99%
[2]; 100 ppm, 24 h
  Solenopsis invicta Mortality (%) 24 h: 16%
[2]; 100 ppm, 72 h
  Solenopsis invicta Mortality (%) 72 h: 100%
[3]; 500 ppm, wingless adults
  Aphis craccivora Mortality (%): 100%
[4]; [5]
  Plutella xylostella Mortality (%): 100%

## N#CCC1(C(=O)C(F)(F)F)Nc2c([S+]([O-])C(F)(F)F)c(C#N)nn2-c2cncc(Cl)c21 (stereo not shown) [b-30]
[1]; [5]
  Spodoptera exigua Mortality (%): 85%
[2]; 100 ppm, 24 h
  Solenopsis invicta Mortality (%) 24 h: 25%
[2]; 100 ppm, 72 h
  Solenopsis invicta Mortality (%) 72 h: 94%
[3]; 500 ppm, wingless adults
  Aphis craccivora Mortality (%): 100%
[4]; [5]
  Plutella xylostella Mortality (%): 90%

## COC(=O)C1(CC(F)(F)F)Nc2c([S+]([O-])C(F)(F)F)c(C#N)nn2-c2c(Cl)cc(C(F)(F)F)cc21 (stereo not drawn) [d-35]
[1]; [5]
  Spodoptera exigua Mortality (%): 89%
[2]; 100 ppm, 24 h
  Solenopsis invicta Mortality (%) 24 h: 30%
[2]; 100 ppm, 72 h
  Solenopsis invicta Mortality (%) 72 h: 100%
[3]; 500 ppm, wingless adults
  Aphis craccivora Mortality (%): 100%
[4]; [5]
  Plutella xylostella Mortality (%): 90%

## N#CCC1Nc2c(OC(F)(F)F)c(C#N)nn2-c2c(Cl)cc(C(F)(F)F)cc21 (stereo not drawn) [d-129]
[1]; [5]
  Spodoptera exigua Mortality (%): 100%
[2]; 100 ppm, 24 h
  Solenopsis invicta Mortality (%) 24 h: 24%
[2]; 100 ppm, 72 h
  Solenopsis invicta Mortality (%) 72 h: 100%
[3]; 500 ppm, wingless adults
  Aphis craccivora Mortality (%): 100%
[4]; [5]
  Plutella xylostella Mortality (%): 95%

## CC1(C)Nc2c(NC(=O)Oc3ccccc3)c(C#N)nn2-c2ccccc21 [Compound A18]
[1]; [6]
  mortality at 500 ppm: 100%
[2]; [10]
  mortality at 100 ppm: 44%
[2]; [11]
  mortality at 100 ppm: 100%
[3]; [7]
  mortality at 500 ppm: 100%
[4]; [5]
  mortality at 500 ppm: 100%

## CNC(=O)C1(CC#N)Nc2c([S+]([O-])C(F)(F)F)c(C#N)nn2-c2c(Cl)cc(C(F)(F)F)cc21 (stereo not shown) [Compound C33]
[1]; 24 h
  mortality at 500 ppm: 100%
[2]; [8]
  mortality at 100 ppm: 36%
[2]; [9]
  mortality at 100 ppm: 100%
[3]; 24 h
  mortality at 500 ppm: 100%
[4]
  mortality at 500 ppm: 100%

## CCOC(=O)C1(CC(=O)OC)Nc2c([S+]([O-])C(F)(F)F)c(C#N)nn2-c2cncc(Cl)c21 (stereo not shown) [b-23]
[1]; [5]
  Spodoptera exigua Mortality (%): 95%
[2]; 100 ppm, 24 h
  Solenopsis invicta Mortality (%) 24 h: 10%
[2]; 100 ppm, 72 h
  Solenopsis invicta Mortality (%) 72 h: 97%
[3]; 500 ppm, wingless adults
  Aphis craccivora Mortality (%): 100%
[4]; [5]
  Plutella xylostella Mortality (%): 96%

## N#Cc1nn2c(c1[S+]([O-])C(F)(F)F)NC(CC(=O)C(F)(F)F)(C(=O)C(F)(F)F)c1cc(C(F)(F)F)cc(Cl)c1-2 (stereo not drawn) [d-50]
[1]; [5]
  Spodoptera exigua Mortality (%): 90%
[2]; 100 ppm, 24 h
  Solenopsis invicta Mortality (%) 24 h: 26%
[2]; 100 ppm, 72 h
  Solenopsis invicta Mortality (%) 72 h: 93%
[3]; 500 ppm, wingless adults
  Aphis craccivora Mortality (%): 100%
[4]; [5]
  Plutella xylostella Mortality (%): 100%
